Patent publication US10772846B2, “Methods and compositions for treating and preventing arthritis” (Montefiore Medical Center, priority 2014, dated 2020)

What was measured:
DMM mice (C57BL/6) [1] = test: Tactile sensitivity testing (von Frey) in DMM OA mice; format: in vivo; settings: oral administration, 8 weeks, summary over von Frey and open field tests
DMM mice (C57BL/6) [2] = test: Slowing progression of OA in DMM post-traumatic OA mouse model (Safranin O staining, OARSI score); format: in vivo; settings: for cartilage damage (fibrillation, erosion, loss of aggrecans) by Safranin O staining: oral daily for 8 weeks; for mean OARSI score ± standard deviation: oral gavage daily for 8 weeks, Carvacrol 50 mg/kg, Curcumin 50 mg/kg, EGCG 5 mg/kg, OPC 50 mg/kg or combination, score 0 healthy to 6 severe erosion, 8 animals/group
Source text: Induction of osteoarthritis in mice. All studies were approved by the Albert Einstein College of Medicine Institutional Animal Care and Use Committee. Destabilization of the medial meniscus (DMM) was established in adult C57BL/6 mice (male, 5-6 months) by surgically transecting the medial meniscotibial ligament (MMTL) in the right hind limb (36). Briefly, the joint capsule immediately medial to the patellar tendon was incised, followed by blunt dissection of the fat pad, to provide visualization of the MMTL of the medial meniscus. The MMTL was transected, leading to DMM. In the sham surgery, the MMTL was visualized but not transected. The joint capsule and skin were closed with suture.
Animals were euthanized, hindlimbs were fixed in formalin, decalcified in formic acid, embedded in paraffin and sectioned for histology and immunohistochemistry. Sections were incubated overnight at 4° C. with antibodies against cleaved aggrecan (NITEGE, Ibex) and cleaved type II collagen (Col2-3/4M, Ibex), MMP-13 (Abcam), and ADAMTS5 (Abcam) followed by incubation with anti-mouse or anti-rabbit secondary antibody (Biocare Medical) and visualization with DAB chromagen (Vector Laboratories). Negative controls were stained with irrelevant isotype-matched antibodies (Biocare Medical). Safranin O-fast green staining was used to visualize proteoglycans in the articular cartilage. Severity of OA was evaluated for each mouse using the Osteoarthritis Research Society International (OARSI) scoring system (34) Immunostaining intensity for type II collagen or aggrecan cleavage epitopes was quantified by determining the “reciprocal intensity” of the stained articular cartilage matrix. Briefly, the light intensity value of random locations within azones from the posterior to anterior direction of the femoral and tibial condyles was measured using the color picker in Adobe Photoshop (37). Percentages of positive MMP-13 and ADAMTS5 chondrocytes were determined by counting the number of immunostained cells and dividing by the total number of chondrocytes visualized by a hematoxylin counterstain (Vector Laboratories).
To determine the efficacy of the C′-CEO formulation in slowing progression of OA in vivo, a well-established post-traumatic mouse model of OA was used. These OA mice were orally administered C′-CEO, individual compounds, or placebo daily. Severity of OA was evaluated 8 weeks after induction of OA, using a well-established and FDA recommended cartilage integrity stain, Safranin O, and a semi-quantitative Osteoarthritis Research Society International (OARSI) scoring system. Furthermore, the efficacy of the C′-CEO formulation was validated by examining the level of breakdown of two major cartilage matrix proteins, type II collagen and aggrecan, as cartilage degradation is a hallmark of OA. It was further examined how the C′-CEO formulation may have such effect by targeting CITED2 by examining CITED2 expression in the articular cartilage of these OA mice.
All studies were approved by the Albert Einstein College of Medicine Institutional Animal Care and Use Committee. Destabilization of the medial meniscus (DMM) was established in adult C57BL/6 mice (male, 5-6 months) by surgically transecting the medial meniscotibial ligament (MMTL) in the right hind limb Immediately after surgery, mice were administered either carvacrol (C′), curcumin (C), EGCG (E), OPC(O), C′-CEO, or vehicle control for 8 weeks. At 8 weeks following surgery, animals were euthanized, the hindlimbs were fixed in formalin, decalcified in formic acid, embedded in paraffin and sectioned for histology. Safranin O, a well-stablished cartilage stain, was used to visualize integrity of the articular cartilage and aggrecans in the articular cartilage. Severity of OA was evaluated using the OARSI scoring system.

Q: Which “pain relief of OA-associated pain (overall: mechanical sensitivity, joint movement and function)” value (shortened to “pain relief of OA-associated pain”) (DMM mice (C57BL/6) [1]) does the source give for `Cc1ccc(C(C)C)cc1O` [Carvacrol] here?
A: The value was “did not result in a statistical improvement in pain relief”.

Q: What about the “cartilage damage (fibrillation, erosion, loss of aggrecans) by Safranin O staining” value (DMM mice (C57BL/6) [2]) of the same molecule?
A: The value was “some reduction in cartilage degradation”.

Q: And the “mean OARSI score ± standard deviation” value (DMM mice (C57BL/6) [2])?
A: Its value is 2.9 ± 0.45.

Q: Which “pain relief of OA-associated pain” value (DMM mice (C57BL/6) [1]) does the source give for `COc1cc(/C=C/C(=O)CC(=O)/C=C/c2ccc(O)c(OC)c2)ccc1O` [Curcumin] here?
A: Its value is “did not result in a statistical improvement in pain relief”.

Q: What about the “cartilage damage (fibrillation, erosion, loss of aggrecans) by Safranin O staining” value (DMM mice (C57BL/6) [2]) of the same molecule?
A: Its value is “some reduction in cartilage degradation”.

Q: What about the “mean OARSI score ± standard deviation” value (DMM mice (C57BL/6) [2]) of the same molecule?
A: The value was 2.4 ± 0.42.

Q: How did the “pain relief of OA-associated pain” value (DMM mice (C57BL/6) [1]) turn out when Epigallocatechin-3-gallate [EGCG] was run?
A: Its value is “did not result in a statistical improvement in pain relief”.

Q: What about the “cartilage damage (fibrillation, erosion, loss of aggrecans) by Safranin O staining” value (DMM mice (C57BL/6) [2]) of the same molecule?
A: The value was “some reduction in cartilage degradation”.

Q: What about the “mean OARSI score ± standard deviation” value (DMM mice (C57BL/6) [2]) of the same molecule?
A: Its value is 2.1 ± 0.29.
